The conditions of series [1]: cited from earlier work.
The conditions of series [2]: relative volatility compared to butyl acetate; cited from earlier work.
A further series concerns rat. Conditions: cited from earlier work.
Series [3] is described as follows: Solvent compatibility with viscosity-increasing polymer, viscosity of solution: VEE. Format: physicochemical. Set-up: unit not given here. Conditions: polymer added at 5% by weight, up to 3 days agitation.
Series [4] in a line: Colorant solubility in solvent. Conditions: 10 g solvent added to 0.4 g D&C Violet #2, shaken 30 minutes, stood 30 minutes. The protocol: For the remaining solvents, colorant solubility was assessed in terms of the solubility of D&C Violet #2. Briefly, 10 g of each of the solvents listed in Table 5 was added to 0.4 g of dye in 12 ml test tubes. The samples were shaken for 30 minutes then allowed to stand for 30 minutes. After standing, 5 ml of the top layer was removed and weighed into pre-weighed aluminum weigh boats where the solvent was allowed to evaporate before re-weighing.

Read-outs that look alike come from different tables or passages of the source.

Here are results for 23 compounds from patent publication US20150136150A1, “DURABLE SKIN MARKING COMPOSITIONS” (OP-MARKS, INC., priority 2011, published 2015).

For the compound `CCCCC(CC)CO` (centres unmarked) [2-ethyl hexanol], in series [1] (at 20 ° C.), the “VP (vapor pressure)” value is recorded as 0.36@20^ mmHg. Also, in series [2], the “VL (volatility)” value is listed as 0.01. For the same compound, the “TOX (toxicity, LD50)” value in the series on rat (rat, in vivo, po) is 3730 mg/kg.

Turning to `COCCOCCOC` [2-methoxy ethyl ether], the “VP (vapor pressure)” value in series [1] (at 25 ° C.) is 3@25 mmHg.

As to `CCCCOCCO` [Butoxyethanol], the “VP (vapor pressure)” value in series [1] (at 20 ° C.) is given as 0.8@20 mmHg.

With `CCCCOC(C)=O` [Butyl acetate], in series [2], the “VL (volatility)” value was 1. Also, the “TOX (toxicity, LD50)” value in the series on rat (rat, in vivo, po) was 10768 mg/kg.

In the case of `O=C1CCCCC1` [Cyclohexanone], in series [1] (at 25 ° C.), the “VP (vapor pressure)” value is reported as 5@25 mmHg. Also, the “VL (volatility)” value in series [2] was 0.29. In addition, the “TOX (toxicity, LD50)” value in the series on rat (rat, in vivo, po) is 1000 mg/kg.

As to `CC(=O)CC(C)(C)O` [Diacetone alcohol], in series [1] (at 20 ° C.), the “VP (vapor pressure)” value is given as 0.95@20^ mmHg. The “VL (volatility)” value in series [2] is recorded as 0.14. Besides, the “TOX (toxicity, LD50)” value in the series with rat (oral dose administered to rat) is given as 4000 mg/kg.

Regarding `CC(Cl)CCl` (centres unmarked) [Dichloropropane], the “VP (vapor pressure)” value in series [1] (at 20 ° C.) is given as 40@20 mmHg. Moreover, the “VL (volatility)” value in series [2] is −1. Besides, in the series with rat (oral dose administered to rat), the “TOX (toxicity, LD50)” value is given as 1947 mg/kg.

For the compound `CCOCC` [Diethyl ether], the “VP (vapor pressure)” value in series [1] (at 20 ° C.) is 440@20 mmHg. Further, the “VL (volatility)” value in series [2] is 37.5. Moreover, in series [3], the “Viscosity of solution with VEE” value is recorded as 1.2.

Turning to `OCCOCCO` [Diethylene glycol], in series [1] (at 92 ° C.), the “VP (vapor pressure)” value is 1@92 mmHg.

Regarding `CC(C)CC(=O)CC(C)C` [Diisobutyl ketone], the “TOX (toxicity, LD50)” value in the series with rat (rat, in vivo, po) is listed as 5750 mg/kg.

Regarding `CC(C)C(=O)C(C)C` [Diisopropyl ketone], the “VP (vapor pressure)” value in series [1] (at 37 ° C.) is on record as 13.3@37^ mmHg. Further, the “VL (volatility)” value in series [2] is 0.17. In the series on rat (rat, in vivo, po), the “TOX (toxicity, LD50)” value is reported as 3536 mg/kg.

Turning to `CCOCCOC(C)=O` [Ethoxyethyl acetate], the “VP (vapor pressure)” value in series [1] (at 20 ° C.) is 2@20 mmHg. In addition, the “VL (volatility)” value in series [2] is −1. In the series on rat (rat, in vivo, po), the “TOX (toxicity, LD50)” value is recorded as 2700 mg/kg.

As for `COCCO` [Methoxy ethanol], the “VP (vapor pressure)” value in series [1] (at 20 ° C.) is 6.2@20 mmHg. For the same compound, in series [2], the “VL (volatility)” value is recorded as −1. Moreover, in the series on rat (oral dose administered to rat), the “TOX (toxicity, LD50)” value is reported as 2370 mg/kg.

On to `COCC(C)O` (centres unmarked) [Methoxy propanol], for which the “VL (volatility)” value in series [2] was 0.3. In addition, the “TOX (toxicity, LD50)” value with rat (oral dose administered to rat) is recorded as 8532 mg/kg.

Consider `CC1CCCCC1` [Methyl cyclohexane], for which the “VP (vapor pressure)” value in series [1] (at 20 ° C.) is listed as 37@20 mmHg. In series [2], the “VL (volatility)” value is given as 2.99. In the series with rat (oral dose administered to rat), the “TOX (toxicity, LD50)” value is listed as 2250 mg/kg.

Regarding `CC(=O)CC(C)C` [Methyl isobutyl ketone], the “VP (vapor pressure)” value in series [1] (at 20 ° C.) is recorded as 16@20 mmHg. The “VL (volatility)” value in series [2] is given as 1.6. Also, the “TOX (toxicity, LD50)” value with rat (oral dose administered to rat) was 1600 mg/kg.

In the case of `C[N+](=O)[O-]` [Nitromethane], in series [1] (at 20 ° C.), the “VP (vapor pressure)” value was 28@20 mmHg. In addition, the “VL (volatility)” value in series [2] is 1.39.

As for `CCCOCC(C)O` (centres unmarked) [PGPE (Arcosolv)], the “VP (vapor pressure)” value in series [1] (at 20 ° C.) was 1.7@20 mmHg. Also, the “VL (volatility)” value in series [2] is 0.21.

Take `CCCOC(C)=O` [Propyl acetate]: the “VP (vapor pressure)” value in series [1] (at 20 ° C.) was 25@20 mmHg. For the same compound, the “VL (volatility)” value in series [2] is on record as 3.0. The “TOX (toxicity, LD50)” value in the series with rat (rat, in vivo, po) is reported as 6640 mg/kg.

Regarding `CC(=O)OC(C)(C)C` [t-Butyl acetate], the “VL (volatility)” value in series [2] was 1.5. The “TOX (toxicity, LD50)” value with rat (oral dose administered to rat) is listed as 13400 mg/kg.

As to `CC(=O)OC(C)C` [t-propyl acetate], the “VP (vapor pressure)” value in series [1] (at 25 ° C.) is given as 59@25 mmHg. For the same compound, the PPM dye soluble in series [4] was 2200 PPM. Besides, the “TOX (toxicity, LD50)” value in the series with rat (oral dose administered to rat) was 6750 mg/kg.

As to Methyl cyclohexanone, in series [1] (at 20 ° C.), the “VP (vapor pressure)” value is given as 3.3@20 mmHg. Further, the “VL (volatility)” value in series [2] is on record as 0.29. Further, the “TOX (toxicity, LD50)” value in the series on rat (oral dose administered to rat) is on record as 2140 mg/kg.

For Xylene, the “VP (vapor pressure)” value in series [1] (at 20 ° C.) is given as 9@20 mmHg. Moreover, in series [2], the “VL (volatility)” value was 0.7. The “TOX (toxicity, LD50)” value with rat (oral dose administered to rat) was 3910 mg/kg.
